According to patent US20140323477A1, “SERINE/THREONINE KINASE INHIBITORS” (Genentech, Inc., priority 2013, published 2014):

Target: T1, human recombinant PAK1-KD protein (Homo sapiens, UniProt Q13153)
T1 construct: made in house; host or cells: Tini cells (insect cells) infected with recombinant baculovirus
Assay: PAK1-KD (kinase domain) IC50 Zlyte assay
Assay type: biochemical
Settings: Z′-LYTE FRET peptide substrate (Ser/Thr19), 20 pM PAK1-KD, 60-minute incubation at 22° C.
Source text: PAK1-KD (Kinase Domain) IC50 Zlyte Assay Protocol
Activity of human recombinant PAK1-KD protein may be assessed in vitro by assay of the phosphorylation of a FRET peptide substrate. Catalytically active human recombinant PAK1-KD protein is obtained by purification from Tini cells infected with a human PAK1-KD recombinant baculovirus expression vector.
The activity/inhibition of PAK1-KD was estimated by measuring the phosphorylation of a FRET peptide substrate (Ser/Thr19) labeled with coumarin and fluorescein using Z′-LYTE™ assay (Invitrogen). The peptide substrate is a consensus sequence (KKRNRRLSVA) based on various PAK substrates reported in the scientific literature. The 10 μL assay mixtures contained 50 mM HEPES (pH 7.5), 0.01% Brij-35, 10 mM MgCl2, 1 mM EGTA, 2 μM FRET peptide substrate, and 20 pM PAK1-KD. Incubations were carried out at 22° C. in black polypropylene 384-well plates (Corning Costar). […] Following the 60-minute incubation, the assay mixtures were quenched by the addition of 5 μL of Z′-LYTETm development reagent, and 1 hour later the emissions of Coumarin (445 nm) and Fluorescein (520 nm) were determined after excitation at 400 nm using an Envision plate reader (Perkin Elmer). An emission ratio (445 nm/520 nm) was determined to quantify the degree of substrate phosphorylation.

T1 sequence (Q13153 270-521 limits assumed): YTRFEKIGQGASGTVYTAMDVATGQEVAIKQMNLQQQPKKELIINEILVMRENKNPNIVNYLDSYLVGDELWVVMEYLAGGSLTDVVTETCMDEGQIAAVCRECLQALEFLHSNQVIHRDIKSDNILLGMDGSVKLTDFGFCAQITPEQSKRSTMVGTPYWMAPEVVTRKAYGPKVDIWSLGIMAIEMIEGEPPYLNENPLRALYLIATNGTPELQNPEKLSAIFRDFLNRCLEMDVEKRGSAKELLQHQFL

| Structure (SMILES) | IC50 |
| --- | --- |
| CCn1c(=O)c(-c2cccc(S(=O)(=O)N(C)C)c2)cc2cnc(NCCC3CCN(C)CC3)nc21 [Compound I-1, 3-[8-ethyl-2-[2-(1-methyl-4-piperidyl)ethylamino]-7-oxo-pyrido[2,3-d]pyrimidin-6-yl]-N,N-dimethyl-benzenesulfonamide] | 182 nM |
| CCNS(=O)(=O)c1ccc(-c2cc3cnc(NCCC4CCN(C)CC4)nc3n(CC)c2=O)c(C)c1 [Compound I-2, N-ethyl-4-[8-ethyl-2-[2-(1-methyl-4-piperidyl)ethylamino]-7-oxo-pyrido[2,3-d]pyrimidin-6-yl]-3-methyl-benzenesulfonamide] | 133 nM |
| CCn1c(=O)c(-c2ccc(S(=O)(=O)N(C)C)cc2C)cc2cnc(NCCC3CCN(C)CC3)nc21 [Compound I-3, 4-[8-ethyl-2-[2-(1-methyl-4-piperidyl)ethylamino]-7-oxo-pyrido[2,3-d]pyrimidin-6-yl]-N,N,3-trimethyl-benzenesulfonamide] | 1320 nM |
| CCn1c(=O)c(-c2ccc(S(=O)(=O)N3CCOCC3)cc2C)cc2cnc(NCCC3CCN(C)CC3)nc21 [Compound I-4, 8-ethyl-6-(2-methyl-4-morpholinosulfonyl-phenyl)-2-[2-(1-methyl-4-piperidyl)ethylamino]pyrido[2,3-d]pyrimidin-7-one] | 751 nM |
| CCn1c(=O)c(-c2ccc(S(=O)(=O)N3CCCC3)cc2C)cc2cnc(NCCC3CCN(C)CC3)nc21 [Compound I-5, 8-ethyl-2-[2-(1-methyl-4-piperidyl)ethylamino]-6-(2-methyl-4-pyrrolidin-1-ylsulfonyl-phenyl)pyrido[2,3-d]pyrimidin-7-one] | 460 nM |
| CCn1c(=O)c(-c2ccc(S(=O)(=O)NC3CC3)cc2C)cc2cnc(NCCC3CCN(C)CC3)nc21 [Compound I-6, N-cyclopropyl-4-[8-ethyl-2-[2-(1-methyl-4-piperidyl)ethylamino]-7-oxo-pyrido[2,3-d]pyrimidin-6-yl]-3-methyl-benzenesulfonamide] | 77.1 nM |
| CCn1c(=O)c(-c2ccc(S(=O)(=O)NC)cc2C)cc2cnc(NCCC3CCN(C)CC3)nc21 [Compound I-7, 4-[8-ethyl-2-[2-(1-methyl-4-piperidyl)ethylamino]-7-oxo-pyrido[2,3-d]pyrimidin-6-yl]-N,3-dimethyl-benzenesulfonamide] | 582 nM |
| CCNS(=O)(=O)c1ccc(-c2cc3cnc(NCCC4CCN(C)CC4)nc3n(CC)c2=O)c(Cl)c1 [Compound I-8, 3-chloro-N-ethyl-4-[8-ethyl-2-[2-(1-methyl-4-piperidyl)ethylamino]-7-oxo-pyrido[2,3-d]pyrimidin-6-yl]benzenesulfonamide] | 22.3 nM |
| CCNc1ncc2cc(-c3ccc(S(=O)(=O)NCC)cc3Cl)c(=O)n(CC)c2n1 [Compound I-9, 3-chloro-N-ethyl-4-[8-ethyl-2-(ethylamino)-7-oxo-pyrido[2,3-d]pyrimidin-6-yl]benzenesulfonamide] | 131 nM |
| CNS(=O)(=O)c1ccc(-c2cc3cnc(NCCC4CCN(C)CC4)nc3n(C)c2=O)c(Cl)c1 [Compound I-10, 3-chloro-N-methyl-4-[8-methyl-2-[2-(1-methyl-4-piperidyl)ethylamino]-7-oxo-pyrido[2,3-d]pyrimidin-6-yl]benzenesulfonamide] | 820 nM |
| CCNc1ncc2cc(-c3ccc(S(=O)(=O)NC)cc3Cl)c(=O)n(C)c2n1 [Compound I-11, 3-chloro-4-[2-(ethylamino)-8-methyl-7-oxo-pyrido[2,3-d]pyrimidin-6-yl]-N-methyl-benzenesulfonamide] | 1600 nM |
| CCNc1ncc2cc(-c3ccc(S(=O)(=O)NC(C)C)cc3Cl)c(=O)n(C)c2n1 [Compound I-12, 3-chloro-4-[2-(ethylamino)-8-methyl-7-oxo-pyrido[2,3-d]pyrimidin-6-yl]-N-isopropyl-benzenesulfonamide] | 177 nM |
| CC(C)NS(=O)(=O)c1ccc(-c2cc3cnc(NCCC4CCN(C)CC4)nc3n(C)c2=O)c(Cl)c1 [Compound I-13, 3-chloro-N-isopropyl-4-[8-methyl-2-[2-(1-methyl-4-piperidyl)ethylamino]-7-oxo-pyrido[2,3-d]pyrimidin-6-yl]benzenesulfonamide] | 80.4 nM |
| CCn1c(=O)c(-c2cc(S(=O)(=O)N(C)C)ccc2Cl)cc2cnc(NCCC3CCN(C)CC3)nc21 [Compound I-14, 4-chloro-3-[8-ethyl-2-[2-(1-methyl-4-piperidyl)ethylamino]-7-oxo-pyrido[2,3-d]pyrimidin-6-yl]-N,N-dimethyl-benzenesulfonamide] | 310 nM |
